Measurements published in article PMC6259456, “Inhibitory Effects of Phylligenin and Quebrachitol Isolated from Mitrephora vulpina on Platelet Activating Factor Receptor Binding and Platelet Aggregation” (Molecules, 2010).
pIC50: −log10 of the molar value. Where two headings read alike, the source gives them in different places.

Target: T1, platelet activating factor (PAF) receptor (Oryctolagus cuniculus, UniProt G1TEI7)
T1 construct: gene PTAFR; native receptor on washed rabbit platelets
Experiment: 3H-PAF radioligand displacement on washed rabbit platelets
Type: cell-based

T1 sequence (G1TEI7 1-342): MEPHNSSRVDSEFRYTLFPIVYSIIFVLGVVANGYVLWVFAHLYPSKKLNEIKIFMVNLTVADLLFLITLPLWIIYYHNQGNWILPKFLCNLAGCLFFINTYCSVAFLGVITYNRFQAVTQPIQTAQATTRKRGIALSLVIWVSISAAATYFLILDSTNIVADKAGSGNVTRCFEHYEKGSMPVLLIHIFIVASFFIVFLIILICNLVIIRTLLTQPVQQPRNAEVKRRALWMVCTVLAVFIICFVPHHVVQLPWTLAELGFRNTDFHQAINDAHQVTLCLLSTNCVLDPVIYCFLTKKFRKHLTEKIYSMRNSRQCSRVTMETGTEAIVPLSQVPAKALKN

| SMILES | pIC50 (read-out: IC50) | pIC50 |
| --- | --- | --- |
| CO[C@H]1[C@H](O)[C@@H](O)[C@H](O)[C@H](O)[C@H]1O [quebrachitol, 2-O-methyl-L-chiro-inositol] | 4.37 | – |
| C[C@@H]1CC[C@H]2C(C)(C)[C@H]3C[C@@]12CC[C@@]3(C)O [cedrol, reference compound] | 4.97 | – |
| COc1cc([C@H]2OC[C@H]3[C@@H]2CO[C@H]3c2ccc(OC)c(OC)c2)ccc1O [phylligenin] | – | 4.88 |
